Results published in patent publication US11414395B2, “Heterocyclic compounds as modulators of mGluR7” (PRAGMA Therapeutics, priority 2017, dated 2022).

Target: human mGluR7 (Homo sapiens (Human), UniProt Q14831)
Assay: Inositol monophosphate production assay (IP1 assay), inhibition of L-AP4 response
Type: cell-based
Settings: mean IC50 from at least two independent experiments; HEK293 cells transiently transfected with mGluR7, Gqtop and EAAC1; IP1 production vs EC80 L-AP4
Procedure, shortened: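 HEK293 cells transiently co-expressing mGluR7, chimeric Gq/Gi (Gqtop) and EAAC1, switched to Glutamax medium 3 h before stimulation. IP1 measured by competitive HTRF; inhibition of an EC80-equivalent L-AP4 response, triplicate points, four-parameter fit to log IC50, mean of ≥2 experiments.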

Chain of human mGluR7 (Q14831 35-915): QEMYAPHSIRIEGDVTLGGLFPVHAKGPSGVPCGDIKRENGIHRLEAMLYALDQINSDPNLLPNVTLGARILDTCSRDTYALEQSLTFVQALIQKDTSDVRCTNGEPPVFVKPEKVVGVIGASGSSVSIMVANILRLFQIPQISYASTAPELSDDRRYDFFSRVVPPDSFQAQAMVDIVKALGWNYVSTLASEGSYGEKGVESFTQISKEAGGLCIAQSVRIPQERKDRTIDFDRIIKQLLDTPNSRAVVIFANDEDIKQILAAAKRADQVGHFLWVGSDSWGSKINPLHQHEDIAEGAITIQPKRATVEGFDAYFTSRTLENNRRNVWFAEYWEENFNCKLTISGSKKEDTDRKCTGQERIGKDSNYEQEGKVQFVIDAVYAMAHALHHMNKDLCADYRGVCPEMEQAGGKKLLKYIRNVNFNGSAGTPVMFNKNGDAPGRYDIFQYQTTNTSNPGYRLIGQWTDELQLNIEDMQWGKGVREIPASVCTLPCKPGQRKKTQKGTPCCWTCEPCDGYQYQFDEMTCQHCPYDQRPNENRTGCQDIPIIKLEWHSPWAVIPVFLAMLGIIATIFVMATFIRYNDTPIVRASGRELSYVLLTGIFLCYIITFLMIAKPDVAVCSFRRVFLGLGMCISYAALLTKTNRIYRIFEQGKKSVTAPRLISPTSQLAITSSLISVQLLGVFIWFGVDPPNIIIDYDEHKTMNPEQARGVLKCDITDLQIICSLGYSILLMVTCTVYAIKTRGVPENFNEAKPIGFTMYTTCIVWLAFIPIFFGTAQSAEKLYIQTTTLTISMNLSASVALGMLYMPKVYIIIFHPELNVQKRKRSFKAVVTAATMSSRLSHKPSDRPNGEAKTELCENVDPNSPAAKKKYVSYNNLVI

| IC50 | Structure (SMILES) |
| --- | --- |
| 500 to 1000 nM | COCc1cccc(C2CCc3c(cnn(-c4ncccn4)c3=O)C2)c1 (centres unmarked) [Example 83, 6-(3-(methoxymethyl)phenyl)-2-(pyrimidin-2-yl)-5,6,7,8-tetrahydrophthalazin-1(2H)-one] |
| 1000 to 30000 nM | Cc1ccc(C2CCc3c(cnn(-c4ccccn4)c3=O)C2)c(C)c1 (single isomer, unassigned; (-)) [Example 4, (−)-6-(2,4-dimethyl-phenyl)-2-pyridin-2-yl-5,6,7,8-tetrahydro-2H-phthalazin-1-one] |
| < 500 nM | COc1cccc(C2CCc3c(cnn(-c4nccc(N5CCOCC5)n4)c3=O)C2)c1C (centres unmarked) [Example 46, 6-(3-methoxy-2-methylphenyl)-2-(4-morpholinopyrimidin-2-yl)-5,6,7,8-tetrahydrophthalazin-1(2H)-one] |
| < 500 nM | Cc1ccc(C2CCc3c(ncn(-c4ccccn4)c3=O)C2)c(C)c1 (centres unmarked) [Example 122, 7-(2,4-dimethylphenyl)-3-(pyridin-2-yl)-5,6,7,8-tetrahydroquinazolin-4(3H)-one] |
| < 500 nM | Cc1c(OC2CC2)cccc1C1CCc2c(cnn(-c3ncccn3)c2=O)C1 (centres unmarked) [Example 104, 6-(3-cyclopropoxy-2-methylphenyl)-2-(pyrimidin-2-yl)-5,6,7,8-tetrahydrophthalazin-1(2H)-one] |
| 1000 to 30000 nM | Cc1c(OC(C)C)cccc1C1CCc2c(cnn(-c3ncccn3)c2=O)C1 (centres unmarked) [Example 103, 6-(3-isopropoxy-2-methylphenyl)-2-(pyrimidin-2-yl)-5,6,7,8-tetrahydrophthalazin-1(2H)-one] |
| < 500 nM | Cc1cnc(-n2ncc3c(c2=O)CCC(c2ccc(C)cc2C)C3)nc1 (centres unmarked) [Example 52, 6-(2,4-dimethylphenyl)-2-(5-methylpyrimidin-2-yl)-5,6,7,8-tetrahydrophthalazin-1(2H)-one] |
| < 500 nM | COCCOc1cnc(-n2ncc3c(c2=O)CCC(c2cccc(OC)c2C)C3)nc1 (centres unmarked) [Example 118, 6-(3-methoxy-2-methylphenyl)-2-(5-(2-methoxyethoxy)pyrimidin-2-yl)-5,6,7,8-tetrahydrophthalazin-1(2H)-one] |
